Results: ChEMBL document CHEMBL1142582, “Lignans and their degraded derivatives from Sarcostemma acidum” (2005)
Converted amounts (≈) assume the structure as drawn.

Tests used:
Type in all cases: functional
Staphylococcus aureus = test: Antimicrobial activity against Staphylococcus aureus ATCC 25923 after 18 hrs by broth microdilution test; details: ATCC 25923, 18 h
Candida albicans = test: Antimicrobial activity against Candida albicans ATCC 1600 after 48 hrs by broth microdilution test; details: ATCC 1600, 48 h
[1] = system: Staphylococcus epidermidis; test: Antimicrobial activity against Staphylococcus epidermidis ATCC 12228 after 18 hrs by broth microdilution test; details: ATCC 12228, 18 h

Row | SMILES | MIC (Staphylococcus aureus) | MIC (Candida albicans) | MIC [1]
1 | COc1cc([C@@H]2c3cc(OC)c(O)c(OC)c3C=C(C)[C@H]2C)cc(OC)c1O (relative stereo) [SACIDUMLIGNAN B] | > 130 µM | > 130 µM | > 130 µM
2 | C=CCc1ccc(O)c(-c2cc(CC=C)ccc2O)c1 [MAGNOLOL] | 47 µM (≈ 12.5 µg/mL) | – | 23 µM (≈ 6.13 µg/mL)
3 | COC(=O)C1=CC[C@@]23CC[C@@H]([C@@](C)(/C=C/C=C(\C)C(=O)O)OC2=O)[C@@]3(OC(C)=O)CC1 [PSEUDOLARIC ACID B] | – | 14 µM (≈ 6.05 µg/mL) | –
4 | COc1cc(-c2c(C)c(C)cc3c(OC)c(O)c(OC)cc23)cc(OC)c1O [SACIDUMLIGNAN A] | 130 µM (≈ 50 µg/mL) | > 130 µM | 65 µM (≈ 25 µg/mL)
